Measured values: PMC12615753, “Glutathione as a taste modulator: molecular mechanisms of interaction with umami and sweet taste receptors” (Food Chemistry: Molecular Sciences, 2025)

Target: T1, hTAS1R1 Q278Y/rTAS1R3 (Homo sapiens, UniProt Q7RTX1, Q278Y)
T1 construct: expressed in transfected cells; host or cells: HEK293T/17 (ATCC CRL-11268)
T1 sequence (Q7RTX1 21-841 Q278Y): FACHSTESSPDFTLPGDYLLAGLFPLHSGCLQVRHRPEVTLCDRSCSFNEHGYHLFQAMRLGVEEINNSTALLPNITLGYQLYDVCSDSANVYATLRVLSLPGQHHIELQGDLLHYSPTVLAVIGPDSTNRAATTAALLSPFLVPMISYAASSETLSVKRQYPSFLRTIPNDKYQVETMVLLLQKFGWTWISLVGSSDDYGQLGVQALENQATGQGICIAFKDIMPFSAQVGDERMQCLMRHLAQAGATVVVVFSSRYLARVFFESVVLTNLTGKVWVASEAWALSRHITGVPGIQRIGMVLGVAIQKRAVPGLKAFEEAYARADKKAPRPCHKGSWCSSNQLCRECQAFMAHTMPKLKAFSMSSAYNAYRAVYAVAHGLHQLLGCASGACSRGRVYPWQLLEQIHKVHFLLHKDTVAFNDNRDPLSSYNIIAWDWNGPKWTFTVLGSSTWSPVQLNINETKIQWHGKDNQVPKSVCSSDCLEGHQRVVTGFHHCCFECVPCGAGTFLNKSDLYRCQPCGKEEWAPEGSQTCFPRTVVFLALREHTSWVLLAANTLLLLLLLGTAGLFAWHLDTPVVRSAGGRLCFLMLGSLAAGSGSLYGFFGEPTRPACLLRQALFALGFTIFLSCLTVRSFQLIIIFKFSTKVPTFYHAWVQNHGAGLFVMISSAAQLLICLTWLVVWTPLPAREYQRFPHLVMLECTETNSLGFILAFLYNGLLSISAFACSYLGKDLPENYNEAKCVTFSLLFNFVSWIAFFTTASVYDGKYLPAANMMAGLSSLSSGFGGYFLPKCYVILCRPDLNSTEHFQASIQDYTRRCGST
T1 sequence (Q923K1 21-858 partner): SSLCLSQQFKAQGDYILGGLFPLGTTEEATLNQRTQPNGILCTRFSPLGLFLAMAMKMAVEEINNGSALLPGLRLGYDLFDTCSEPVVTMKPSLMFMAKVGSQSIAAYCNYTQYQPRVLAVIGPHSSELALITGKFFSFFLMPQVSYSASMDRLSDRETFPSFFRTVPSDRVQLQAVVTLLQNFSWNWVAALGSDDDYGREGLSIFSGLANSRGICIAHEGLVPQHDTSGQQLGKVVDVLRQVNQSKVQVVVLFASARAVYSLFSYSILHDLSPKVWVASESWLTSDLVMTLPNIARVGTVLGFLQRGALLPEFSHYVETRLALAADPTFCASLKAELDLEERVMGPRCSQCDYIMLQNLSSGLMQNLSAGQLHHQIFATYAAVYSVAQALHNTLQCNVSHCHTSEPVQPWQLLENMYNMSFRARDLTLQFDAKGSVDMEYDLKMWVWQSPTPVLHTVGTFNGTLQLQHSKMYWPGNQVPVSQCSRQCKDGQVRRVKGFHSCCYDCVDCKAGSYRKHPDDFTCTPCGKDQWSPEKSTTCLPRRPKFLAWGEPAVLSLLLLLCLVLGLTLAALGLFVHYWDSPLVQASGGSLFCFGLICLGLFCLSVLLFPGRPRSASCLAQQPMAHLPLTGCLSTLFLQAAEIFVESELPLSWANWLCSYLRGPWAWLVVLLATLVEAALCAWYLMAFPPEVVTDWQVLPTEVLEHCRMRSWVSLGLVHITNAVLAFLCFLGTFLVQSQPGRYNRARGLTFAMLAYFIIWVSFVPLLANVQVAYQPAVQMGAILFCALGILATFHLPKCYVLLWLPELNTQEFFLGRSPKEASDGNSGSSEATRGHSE
Assay: Calcium assay, hTAS1R1 mutant co-expressed with rTAS1R3
Format: cell-based, rat

N[C@@H](CCC(=O)N[C@@H](CS)C(=O)NCC(=O)O)C(=O)O [GSH, γ-L-glutamyl-L-cysteinyl-glycine]
EC50: 3.96 ± 1.76 mM | effect of the added compound (1 mM) on the response to L-Glu (Q278Y): synergy was observed | Max ∆F/F0 (Q278Y, GSH): 0.47 ± 0.07 | R1 = mutant EC50/WT EC50 (Q278Y, GSH): 1.6

CCCC(CCC)NC(=O)c1ccc2c(c1)OCO2 [S807, N-(heptan-4-yl)benzo[d][1,3]dioxole-5-carboxamide, reference compound]
response to the agonist alone, vs WT (Q278Y): strongly affected
